{"source": "patent EP0885006B1", "about": "“PHARMACEUTICAL COMPOSITION ENABLING TO INHIBIT CANCER METASTASIS FORMATION CONTAINING N-ACETYL-CYSTEINE AND DOXORUBICIN” (ZAMBON GROUP S.p.A., priority 1996, dated 1997)", "test_system": "B16-F10 murine melanoma cells", "experiment": "Experimental metastasis assay (lung metastases after i.v. injection of cancer cells)", "type": "in vivo, female nude (CD-1)BR mice", "conditions": "for reduction in the number of lung metastases with respect to untreated controls: DOX 5 mg/kg i.p. +24 h, NAC 2 g/kg p.o. daily", "method": "DOX was used in the form of commercial injectable product, containing 10 mg of drug per vial (Adriblastina®, Farmitalia - Carlo Erba, Milano, Italia), to be dissolved in distilled water when injected. In the experiments wherein the oral administration was provided, NAC was used in the form of commercial product containing 200 mg of NAC per dosage (Fluimucil®, Zambon Italia, Vicenza), directly dissolved in the drinking water of mice. In the experiments wherein the parenteral (i.p. or i.v.) administration of NAC was foreseen, a 98% pure laboratory reagent (Sigma Chemical Co., St. Louis, MO, U.S.A.) was used, dissolved in a phosphate buffer (PBS), pH 7.4, and furtherly brought to neutrality with NaOH 0.1 N (\"spontaneous\" metastasis assays) or in NaCl 0.15 M, taking the solution to pH 7.0 (experimental metastasis assays).\nA total of 385 adult mice was used (Charles River, Calco, Como, Italia) of which 196 female nude (CD-1)BR mice, aged 7 weeks, average weight of 25 g and 189 female C57BL/6 mice aged 6-8 weeks, average weight of 20 g, used in the experimental metastasis assays and in those of \"spontaneous\" metastases respectively. The (CD-1)BR mice were housed in sterile cages with filtering cover, in a number of 3 animals per cage, at a room temperature of 26-28°C, with a relative humidity of 55%, a ventilation accounting for 12-15 air/h renewals and a 12 hours day/night cycle; the C57BL/6 mice were stabulated in a number of 5 animals per cage, at a temperature of 25-27°C, with a relative humidity of 50% and a 12 hours day/night cycle. The (CD-1)BR mice received a special diet sterilized under vacuum (Mucedola S.r.L, Settimo Milanese, Milano, Italia) and sterilized drinking water; the C57BL/6 mice received a standard rodent diet (MIL Topi e Ratti, Morini, S. Polo d'Enza, Reggio Emilia, Italia) and drinking water ad libitum throughout the duration of the experiments. Within the experiments wherein the sacrifice of mice was foreseen at a scheduled time, killing was carried out by means of ethyl ether anaesthesia and subsequent cervical dislocation. The stabulation and all the animal treatments were carried out in accordance with the national and Community guidelines (D.L. 27.01.1992 N. 116; 86/609/EEC Directive).\nIn this kind of assay cancer cells were injected in the lateral tail vein, in order to avoid the formation of primary tumors and directly provide the spread of metastases in the lungs. B16-F10 murine melanoma cells were used, resuspended in serum-free Eagle's MEM medium, and injected i.v. in a volume of 100 µl (5 x 10^4 cells/mouse). As reported in Table 1, wherein also the number of mice included in each experimental group is indicated, 4 groups were always involved in each experiment, namely a control group (either untreated mice or treated with NaCl 0.15M), a group of mice treated with DOX only, a group of mice treated with NAC only and a group of mice treated with the two combined drugs.\nIn particular, in experiment #1 DOX was injected in a single dose (5 mg/kg body weight) by i.p. route 24 hours after injection of cancer cells, whereas NAC was administered every day with drinking water, at a calculated dose of 2 g/kg body weight, starting 3 days before injection of cancer cells and continuing throughout the duration of the experiment.\nIn experiment #2 DOX was injected in a single dose (10 mg/kg body weight) by i.v. route 3 days after injection of cancer cells, whereas NAC was administered daily by i.p. route (1 g/kg body weight), starting 8 hours before injection of cancer cells and continuing for 8 days.\nIn experiment #3 both DOX and NAC were injected by i.v. route 24 hours after injection of cancer cells, […]; in the combined treatment therefore the two drugs were injected after being mixed into the same syringe.\nIn experiment #4, wherein the control and DOX groups were the same as experiment #3, NAC was injected by i.v. route together with cancer cells, dissolved in the culture medium at a concentration of 10 mM. […]", "key": {"[1]": {"conditions": "experiment #1, DOX 5 mg/kg i.p. +24h, NAC 2 g/kg p.o. -3/+25 days, DOX+NAC same doses, killed at 25 days"}, "[2]": {"conditions": "experiment #1, combined same doses"}, "[3]": {"conditions": "experiment #2, DOX 10 mg/kg i.v. +3 days, NAC 1 g/kg i.p. -8 h/+8 days, DOX+NAC same doses, killed at 29 days"}, "[4]": {"conditions": "experiment #2, DOX 10 mg/kg i.v. +3 days, NAC 1 g/kg i.p. daily -8 h/+8 days, combined same doses"}, "[5]": {"conditions": "experiment #2, NAC 1 g/kg i.p. daily -8 h/+8 days"}, "[6]": {"conditions": "experiment #3, DOX 1 mg/kg i.v. +24 h, NAC 6.4 mg/kg i.v. +24 h, combined in the same injection"}, "[7]": {"conditions": "experiment #3, DOX 1 mg/kg i.v. +24 h, NAC 6,4 mg/kg i.v. +24 h, DOX+NAC mixed in the same syringe, killed at 27 days"}, "[8]": {"conditions": "experiment #4, DOX 1 mg/kg i.v. +24 h, NAC 10 mM in cancer cells culture medium, combined same doses"}, "[9]": {"conditions": "experiment #4, DOX 1 mg/kg i.v. +24 h, NAC 10 mM in culture medium of the injected cancer cells, DOX+NAC same doses, killed at 27 days"}}}
{"smiles": "CC(=O)N[C@@H](CS)C(=O)O", "note": "[NAC, N-acetyl-cysteine]", "values": [{"measurement": "Lung metastases No. (mean ± ES)", "setting": "[1]", "value": "42.1 ± 15.8", "unit": "No."}, {"measurement": "Mice with metastases (No.) 0", "setting": "[1]", "value": 0, "unit": "No."}, {"measurement": "Mice with metastases (No.) 1-10", "setting": "[1]", "value": 3, "unit": "No."}, {"measurement": "Mice with metastases (No.) 11-50", "setting": "[1]", "value": 7, "unit": "No."}, {"measurement": "Mice with metastases (No.) ≥51", "setting": "[1]", "value": 2, "unit": "No."}, {"measurement": "reduction in the number of lung metastases with respect to untreated controls", "setting": "[2]", "value": 1.3, "unit": "fold"}, {"measurement": "Lung metastases No. (mean ± ES)", "setting": "[3]", "value": "25.1 ± 10.2", "unit": "No."}, {"measurement": "Mice with metastases (No.) 0", "setting": "[3]", "value": 5, "unit": "No."}, {"measurement": "Mice with metastases (No.) 1-10", "setting": "[3]", "value": 4, "unit": "No."}, {"measurement": "Mice with metastases (No.) 11-50", "setting": "[3]", "value": 3, "unit": "No."}, {"measurement": "Mice with metastases (No.) ≥51", "setting": "[3]", "value": 3, "unit": "No."}, {"measurement": "reduction in the number of lung metastases with respect to controls", "setting": "[4]", "value": 0.5, "unit": "fold"}, {"measurement": "frequency of animals with metastases (effect in words)", "setting": "[5]", "value": "did not affect"}, {"measurement": "multiplicity of lung metastases (effect in words)", "setting": "[5]", "value": "even increased their multiplicity, but not to a significant extent"}, {"measurement": "reduction in the number of lung metastases with respect to controls", "setting": "[6]", "value": 2.8, "unit": "fold"}, {"measurement": "Lung metastases No. (mean ± ES)", "setting": "[7]", "value": "13.1 ± 8.9", "unit": "No."}, {"measurement": "Mice with metastases (No.) 0", "setting": "[7]", "value": 5, "unit": "No."}, {"measurement": "Mice with metastases (No.) 1-10", "setting": "[7]", "value": 2, "unit": "No."}, {"measurement": "Mice with metastases (No.) 11-50", "setting": "[7]", "value": 3, "unit": "No."}, {"measurement": "Mice with metastases (No.) ≥51", "setting": "[7]", "value": 1, "unit": "No."}, {"measurement": "reduction in the number of lung metastases with respect to controls", "setting": "[8]", "value": 14.7, "unit": "fold"}, {"measurement": "Lung metastases No. (mean ± ES)", "setting": "[9]", "value": "2.5 ± 0.7", "unit": "No."}, {"measurement": "Mice with metastases (No.) 0", "setting": "[9]", "value": 4, "unit": "No."}, {"measurement": "Mice with metastases (No.) 1-10", "setting": "[9]", "value": 7, "unit": "No."}, {"measurement": "Mice with metastases (No.) 11-50", "setting": "[9]", "value": 0, "unit": "No."}, {"measurement": "Mice with metastases (No.) ≥51", "setting": "[9]", "value": 0, "unit": "No."}]}
{"smiles": "COc1cccc2c1C(=O)c1c(O)c3c(c(O)c1C2=O)C[C@@](O)(C(=O)CO)C[C@@H]3O[C@H]1C[C@H](N)[C@H](O)[C@H](C)O1", "note": "[DOX, Doxorubicin]", "values": [{"measurement": "Lung metastases No. (mean ± ES)", "setting": "[1]", "value": "13.1 ± 11.6", "unit": "No."}, {"measurement": "Mice with metastases (No.) 0", "setting": "[1]", "value": 2, "unit": "No."}, {"measurement": "Mice with metastases (No.) 1-10", "setting": "[1]", "value": 4, "unit": "No."}, {"measurement": "Mice with metastases (No.) 11-50", "setting": "[1]", "value": 5, "unit": "No."}, {"measurement": "Mice with metastases (No.) ≥51", "setting": "[1]", "value": 0, "unit": "No."}, {"measurement": "reduction in the number of lung metastases with respect to untreated controls", "setting": "[2]", "value": 4.1, "unit": "fold"}, {"measurement": "Lung metastases No. (mean ± ES)", "setting": "[3]", "value": "0.7 ± 0.3", "unit": "No."}, {"measurement": "Mice with metastases (No.) 0", "setting": "[3]", "value": 10, "unit": "No."}, {"measurement": "Mice with metastases (No.) 1-10", "setting": "[3]", "value": 5, "unit": "No."}, {"measurement": "Mice with metastases (No.) 11-50", "setting": "[3]", "value": 0, "unit": "No."}, {"measurement": "Mice with metastases (No.) ≥51", "setting": "[3]", "value": 0, "unit": "No."}, {"measurement": "reduction in the number of lung metastases with respect to controls", "setting": "[4]", "value": 17.4, "unit": "fold"}, {"measurement": "frequency of mice affected by metastases", "setting": "experiment #2, DOX 10 mg/kg i.v. +3 days, NAC 1 g/kg i.p. daily, controls 66.7%", "value": 33.3, "unit": "%"}, {"measurement": "reduction in the number of lung metastases with respect to controls", "setting": "[6]", "value": 1.3, "unit": "fold"}, {"measurement": "Lung metastases No. (mean ± ES)", "setting": "[7]", "value": "29.2 ± 13.7", "unit": "No."}, {"measurement": "Mice with metastases (No.) 0", "setting": "[7]", "value": 3, "unit": "No."}, {"measurement": "Mice with metastases (No.) 1-10", "setting": "[7]", "value": 5, "unit": "No."}, {"measurement": "Mice with metastases (No.) 11-50", "setting": "[7]", "value": 0, "unit": "No."}, {"measurement": "Mice with metastases (No.) ≥51", "setting": "[7]", "value": 3, "unit": "No."}, {"measurement": "reduction in the number of lung metastases with respect to controls", "setting": "[8]", "value": 1.3, "unit": "fold"}, {"measurement": "Lung metastases No. (mean ± ES)", "setting": "[9]", "value": "29.2 ± 13.7", "unit": "No."}, {"measurement": "Mice with metastases (No.) 0", "setting": "[9]", "value": 3, "unit": "No."}, {"measurement": "Mice with metastases (No.) 1-10", "setting": "[9]", "value": 5, "unit": "No."}, {"measurement": "Mice with metastases (No.) 11-50", "setting": "[9]", "value": 0, "unit": "No."}, {"measurement": "Mice with metastases (No.) ≥51", "setting": "[9]", "value": 3, "unit": "No."}, {"measurement": "modulating the induction of lung metastases (effect in words)", "setting": "experiments #3 and #4, DOX 1 mg/kg i.v. +24 h", "value": "almost ineffective at all"}]}
